Data reported in PubChem BioAssay AID328 (DTP/NCI, 2004).
Where “and” joins values, the source holds several entries; their conditions need not be identical. Equal values may be shown once. Toxic doses and inconclusive results are not listed.

Test system: BDF1 mice, P388 leukemia ip, median survival T/C
Experiment: NCI In Vivo Anticancer Drug Screen. Data for tumor model P388 Leukemia (intraperitoneal) in B6D2F1 (BDF1) mice
Settings: endpoint: median survival time, higher = longer survival
How it was run: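 In tumour-bearing mice, survival after compound treatment is set against the vehicle group and given as a quotient.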

[1] = dose: 100.0 mg/kg/injection, schedule: Q04DX003 (ip), vehicle: Klucel (hydroxypropylcellulose) (HPC)
[2] = dose: 200.0 mg/kg/injection, schedule: Q04DX003 (ip), vehicle: Klucel (hydroxypropylcellulose) (HPC)
[3] = dose: 400.0 mg/kg/injection, schedule: Q04DX003 (ip), vehicle: Klucel (hydroxypropylcellulose) (HPC)
[4] = dose: 200.0 mg/kg/injection, schedule: Q01DX009 (ip), vehicle: saline with Tween-80

For `Nc1ccc(CCc2ccc(Cl)cc2S(=O)(=O)F)c(Cl)c1`, the T/C (dose: 100.0 mg/kg/injection, schedule: Q01DX009 (ip), vehicle: saline) was 95 % of control and the T/C (dose: 200.0 mg/kg/injection, schedule: Q01DX009 (ip), vehicle: saline) was 91 % of control.
With `C[n+]1ccc(Nc2ccc(NC(=O)c3ccc(Nc4cc[n+](C)c5ccc(N)cc45)cc3N)cc2)cc1` the T/C (dose: 0.5 mg/kg/injection, schedule: Q01DX010 (ip), vehicle: saline) was 150 % of control, the T/C (dose: 0.88 mg/kg/injection, schedule: Q04DX003 (ip), vehicle: saline with Tween-80) was 123 % of control and the T/C (dose: 1.0 mg/kg/injection, schedule: Q01DX010 (ip), vehicle: saline) was 160 % of control. For the same compound, the T/C (dose: 1.56 mg/kg/injection, schedule: Q01DX009 (ip), vehicle: Klucel (hydroxypropylcellulose) (HPC)) was 194 % of control, the T/C (dose: 2.0 mg/kg/injection, schedule: Q01DX009 (ip), vehicle: saline with Tween-80) was 150 % of control and the T/C (dose: 2.0 mg/kg/injection, schedule: Q01DX010 (ip), vehicle: saline) was 205 % of control. The T/C (dose: 3.0 mg/kg/injection, schedule: Q04DX003 (ip), vehicle: saline with Tween-80) was 152 % of control, the T/C (dose: 3.12 mg/kg/injection, schedule: Q01DX009 (ip), vehicle: Klucel (hydroxypropylcellulose) (HPC)) was 252 % of control and 216 % of control and the T/C (dose: 3.12 mg/kg/injection, schedule: Q01DX009 (ip), vehicle: saline) was 169 % of control. For the same compound, the T/C (dose: 3.6 mg/kg/injection, schedule: Q04DX003 (ip), vehicle: saline with Tween-80) was 154 % of control, the T/C (dose: 4.0 mg/kg/injection, schedule: Q01DX009 (ip), vehicle: saline with Tween-80) was 229 % of control and the T/C (dose: 4.0 mg/kg/injection, schedule: Q01DX010 (ip), vehicle: saline) was 300 % of control. For the same compound, the T/C (dose: 5.56 mg/kg/injection, schedule: Q04DX003 (ip), vehicle: saline) was 168 % of control, the T/C (dose: 5.6 mg/kg/injection, schedule: Q04DX003 (ip), vehicle: saline with Tween-80) was 159 % of control and the T/C (dose: 6.25 mg/kg/injection, schedule: Q01DX009 (ip), vehicle: Klucel (hydroxypropylcellulose) (HPC)) was 266 % of control and 267 % of control. For the same compound, the T/C (dose: 6.25 mg/kg/injection, schedule: Q01DX009 (ip), vehicle: saline) was 172 % of control, the T/C (dose: 6.25 mg/kg/injection, schedule: Q01DX010 (ip), vehicle: saline) was 300 % of control and the T/C (dose: 6.25 mg/kg/injection, schedule: Q04DX003 (ip), vehicle: saline) was 163 % of control. The T/C (dose: 8.0 mg/kg/injection, schedule: Q01DX009 (ip), vehicle: saline with Tween-80) was 250 % of control, the T/C (dose: 8.3 mg/kg/injection, schedule: Q04DX003 (ip), vehicle: saline with Tween-80) was 177 % of control and the T/C (dose: 8.33 mg/kg/injection, schedule: Q04DX003 (ip), vehicle: saline) was 227 % of control. The T/C (dose: 12.5 mg/kg/injection, schedule: Q01DX009 (ip), vehicle: Klucel (hydroxypropylcellulose) (HPC)) was 267 % of control and 199 % of control, the T/C (dose: 12.5 mg/kg/injection, schedule: Q01DX009 (ip), vehicle: saline) was 172 % of control and the T/C (dose: 12.5 mg/kg/injection, schedule: Q01DX010 (ip), vehicle: saline) was 300 % of control. The T/C (dose: 12.5 mg/kg/injection, schedule: Q04DX003 (ip), vehicle: saline with Tween-80) was 209 % of control, the T/C (dose: 12.5 mg/kg/injection, schedule: Q04DX003 (ip), vehicle: saline) was 200 % of control and 218 % of control and 186 % of control and the T/C (dose: 16.0 mg/kg/injection, schedule: Q01DX009 (ip), vehicle: saline with Tween-80) was 250 % of control. For the same compound, the T/C (dose: 18.7 mg/kg/injection, schedule: Q04DX003 (ip), vehicle: saline with Tween-80) was 263 % of control, the T/C (dose: 25.0 mg/kg/injection, schedule: Q01DX009 (ip), vehicle: Klucel (hydroxypropylcellulose) (HPC)) was 116 % of control and the T/C (dose: 25.0 mg/kg/injection, schedule: Q01DX009 (ip), vehicle: saline) was 172 % of control. For the same compound, the T/C (dose: 25.0 mg/kg/injection, schedule: Q04DX003 (ip), vehicle: saline) was 272 % of control and 254 % of control, the T/C (dose: 26.0 mg/kg/injection, schedule: Q04DX003 (ip), vehicle: saline with Tween-80) was 272 % of control and the T/C (dose: 32.0 mg/kg/injection, schedule: Q01DX009 (ip), vehicle: saline with Tween-80) was 112 % of control. The T/C (dose: 40.0 mg/kg/injection, schedule: Q04DX003 (ip), vehicle: saline with Tween-80) was 272 % of control, the T/C (dose: 50.0 mg/kg/injection, schedule: Q01DX009 (ip), vehicle: saline) was 106 % of control and the T/C (dose: 50.0 mg/kg/injection, schedule: Q01DX010 (ip), vehicle: saline) was 90 % of control. For the same compound, the T/C (dose: 50.0 mg/kg/injection, schedule: Q04DX003 (ip), vehicle: saline) was 310 % of control and the T/C (dose: 60.0 mg/kg/injection, schedule: Q04DX003 (ip), vehicle: saline with Tween-80) was 272 % of control.
For `c1ccc(C2=C(c3ccccc3)c3cccc4cccc2c34)cc1`, the T/C (dose: 100.0 mg/kg/injection, schedule: Q01DX001 (ip), vehicle: Klucel (hydroxypropylcellulose) (HPC)) was 95 % of control and 110 % of control, the T/C [1] was 115 % of control and the T/C (dose: 200.0 mg/kg/injection, schedule: Q01DX001 (ip), vehicle: Klucel (hydroxypropylcellulose) (HPC)) was 105 % of control. The T/C [2] was 120 % of control, the T/C (dose: 400.0 mg/kg/injection, schedule: Q01DX001 (ip), vehicle: Klucel (hydroxypropylcellulose) (HPC)) was 95 % of control and 105 % of control and the T/C [3] was 110 % of control.
For `COc1cc2ccc(CC(=O)NCCc3ccc4c(c3)OCO4)cc2cc1OC`, the T/C [1] was 100 % of control, the T/C [2] was 90 % of control and the T/C [3] was 90 % of control.
With `COc1cc(OC)c(Br)c(OC)c1` the T/C (dose: 100.0 mg/kg/injection, schedule: Q01DX009 (ip), vehicle: Klucel (hydroxypropylcellulose) (HPC)) was 100 % of control, the T/C [1] was 112 % of control and the T/C (dose: 200.0 mg/kg/injection, schedule: Q01DX009 (ip), vehicle: Klucel (hydroxypropylcellulose) (HPC)) was 100 % of control. The T/C [2] was 104 % of control, the T/C (dose: 400.0 mg/kg/injection, schedule: Q01DX009 (ip), vehicle: Klucel (hydroxypropylcellulose) (HPC)) was 116 % of control and the T/C [3] was 100 % of control.
In the case of `CNCc1cccs1`, the T/C (dose: 100.0 mg/kg/injection, schedule: Q04DX003 (ip), vehicle: saline) is reported as 106 % of control, the T/C (dose: 200.0 mg/kg/injection, schedule: Q04DX003 (ip), vehicle: saline) is reported as 117 % of control and the T/C (dose: 400.0 mg/kg/injection, schedule: Q04DX003 (ip), vehicle: saline) is reported as 100 % of control.
In the case of `COC(=O)C(N)CCCCNc1ccc2c(cc1=O)C(NC(C)=O)CCc1cc(OC)c(OC)c(OC)c1-2` (centres undefined), the T/C (dose: 26.0 mg/kg/injection, schedule: Q01DX009 (ip), vehicle: saline with Tween-80) is reported as 124 % of control, the T/C (dose: 40.0 mg/kg/injection, schedule: Q01DX009 (ip), vehicle: saline with Tween-80) is reported as 118 % of control and the T/C (dose: 60.0 mg/kg/injection, schedule: Q01DX009 (ip), vehicle: saline with Tween-80) is reported as 119 % of control. The T/C (dose: 90.0 mg/kg/injection, schedule: Q01DX009 (ip), vehicle: saline with Tween-80) was 117 % of control, the T/C [4] was 170 % of control and the T/C (dose: 300.0 mg/kg/injection, schedule: Q01DX009 (ip), vehicle: saline with Tween-80) was 159 % of control.
With `Cc1ccc(C2(C#N)CC2)cc1` the T/C (dose: 100.0 mg/kg/injection, schedule: Q01DX009 (ip), vehicle: saline with Tween-80) was 108 % of control, the T/C (dose: 100.0 mg/kg/injection, schedule: Q04DX003 (ip), vehicle: saline with Tween-80) was 100 % of control and the T/C [4] was 112 % of control. For the same compound, the T/C (dose: 200.0 mg/kg/injection, schedule: Q04DX003 (ip), vehicle: saline with Tween-80) was 108 % of control, the T/C (dose: 400.0 mg/kg/injection, schedule: Q01DX009 (ip), vehicle: saline with Tween-80) was 116 % of control and the T/C (dose: 400.0 mg/kg/injection, schedule: Q04DX003 (ip), vehicle: saline with Tween-80) was 116 % of control.
`CCOC(=O)/C=C(\C)Nc1ccc(NC(C)=O)cc1` was tested, and the T/C (dose: 25.0 mg/kg/injection, schedule: Q01DX009 (ip), vehicle: water) was 91 % of control, the T/C (dose: 50.0 mg/kg/injection, schedule: Q01DX009 (ip), vehicle: water) was 89 % of control and the T/C (dose: 50.0 mg/kg/injection, schedule: Q04DX003 (ip), vehicle: water) was 106 % of control. The T/C (dose: 100.0 mg/kg/injection, schedule: Q01DX009 (ip), vehicle: water) was 94 % of control, the T/C (dose: 100.0 mg/kg/injection, schedule: Q04DX003 (ip), vehicle: water) was 111 % of control and the T/C (dose: 200.0 mg/kg/injection, schedule: Q01DX009 (ip), vehicle: water) was 110 % of control. For the same compound, the T/C (dose: 200.0 mg/kg/injection, schedule: Q04DX003 (ip), vehicle: water) was 120 % of control, the T/C (dose: 400.0 mg/kg/injection, schedule: Q01DX009 (ip), vehicle: water) was 94 % of control and the T/C (dose: 400.0 mg/kg/injection, schedule: Q04DX003 (ip), vehicle: water) was 103 % of control.
